Assay in all cases: growth of human tumour cells (NCI), 48 h
Assay [1] has as its system OVCAR-5 ovarian.
The subject of assay [2] is A498 renal.
In assay [3] the test system is HL-60(TB) leukemia.
The test system of assay [4] is OVCAR-3 ovarian.
The subject of assay [5] is SW-620 colon.
The subject of assay [6] is CCRF-CEM leukemia.
The subject of assay [7] is RXF 393 renal.
In assay [8] the test system is K-562 leukemia.
Assay [9] deals with SK-MEL-28 melanoma.
Assay [10] deals with TK-10 renal.

The values that follow come from PubChem BioAssay (NCI).

Molecules are shown by their SMILES. Values joined by “and” are separate entries in the source; they are usually repeats but may differ in a detail not shown here. Equal entries are not always repeated.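 Five compound concentrations were applied to cells in 96-well plates for 48 hours; endpoints were derived by simple linear interpolation of the resulting dose-response curve. Abbreviation: GI50, concentration required for 50% inhibition of growth. The concentration for full growth arrest is given as TGI.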 A value given as a limit tells only on which side of the number the result lay.

For `C=C1CCC2C(C)(CO)C(O)CCC2(C)C1C/C=C1\C(=O)OCC1O` (stereo not given), the TGI was 31.1 µM in assay [1]; 93.1 µM in assay [2]; greater than 100 µM in assay [3]; 21.2 µM in assay [4]; 24 µM in assay [5]; greater than 100 µM in assay [6]. The TGI in [7] is 33.8 µM; in [8] it was greater than 100 µM; in [9], 27.3 µM; in [10] it was greater than 100 µM.
On to `Fc1nc(Sc2ncnc3nc[nH]c23)nc(-c2c3ccccc3c3sc4ccccc4n23)n1`, for which the TGI in [1], in [2], in assay [3], in assay [4], in assay [5] and in [6] was greater than 100 µM throughout. Further, the TGI in assay [7], in assay [8], in assay [9] and in assay [10] was greater than 100 µM throughout.
As for `COc1ccc([C@H]2c3[nH]c4ccccc4c3C[C@H]3C(=O)N(CCCCCCC(=O)NO)CC(=O)N23)cc1`, the GI50 was 1.49 µM in [1]; 2910 nM in assay [2]; 1.19 µM in assay [3]; 1.88 µM in assay [4]; 1.03 µM in [5]; 1.48 µM in assay [6]. The GI50 in assay [7] was 1.33 µM; in assay [8], 0.895 µM; in assay [9], 1.29 µM; in [10], 2.86 µM. The TGI in assay [1] was greater than 33.3 µM; in assay [2], 9.55 µM; in [3], greater than 33.3 µM; in assay [4], 17.4 µM; in assay [5], greater than 33.3 µM; in [6], greater than 33.3 µM. For the same compound, the TGI is 6.12 µM in assay [7], greater than 33.3 µM in assay [8], greater than 33.3 µM in [9] and 32.7 µM in assay [10].
In the case of `COC(=O)c1sc(=S)c2sc(C(=O)OC)c(C(=O)OC)c2c1C(=O)OC`, the GI50 was 92.2 µM in [1]; 22200 nM in assay [2]; 21.9 µM in assay [3]; 35.5 µM in [4]; 74.8 µM in assay [5]; 30.8 µM in assay [6]. Moreover, the GI50 in [7] is 41.7 µM; in assay [8], 36.2 µM; in assay [9] it was 71.8 µM; in [10], 18.1 µM. For the same compound, the TGI in assay [1] is greater than 100 µM; in assay [2] it was 52.1 µM; in [3], 62.3 µM; in assay [4], greater than 100 µM; in [5], greater than 100 µM; in [6], 80.1 µM. Besides, the TGI was greater than 100 µM in assay [7], greater than 100 µM in assay [8], greater than 100 µM in assay [9] and 89.8 µM in assay [10].
Turning to `Cn1cc(C2=C(c3cccc([N+](=O)[O-])c3)C(=O)NC2=O)c2ccccc21`, the GI50 in assay [1] is greater than 25 µM; in assay [2], 539 nM; in assay [3] it was 7.14 µM; in [4], 5.33 µM; in [5], 11.4 µM; in assay [6], 7.19 µM. Further, the GI50 is 2.12 µM in assay [7], 4.85 µM in assay [8], 10.5 µM in [9] and 12.1 µM in assay [10]. The TGI is greater than 25 µM in assay [1]; 1.81 µM in assay [2]; 19.1 µM in [3]; greater than 22 µM in assay [4]; greater than 25 µM in assay [5]; greater than 25 µM in [6]. In addition, the TGI is 9.4 µM in assay [7], greater than 25 µM in assay [8], greater than 25 µM in assay [9] and greater than 25 µM in [10].
On to `NCC[PH+](c1ccccc1)c1ccccc1.NCC[PH+](c1ccccc1)c1ccccc1.[Cl-].[Pt+4]`, for which the GI50 is greater than 100 µM in assay [1]; greater than 100000 nM in [2]; 1.8 µM in assay [3]; greater than 100 µM in assay [4]; greater than 100 µM in assay [5]; 12.2 µM in assay [6]. Moreover, the GI50 is greater than 100 µM in assay [7], 26.5 µM in assay [8], greater than 100 µM in [9] and greater than 100 µM in assay [10]. Further, the TGI in assay [1] was greater than 100 µM; in [2], greater than 100 µM; in assay [3] it was greater than 57.8 µM; in assay [4], greater than 100 µM; in [5], greater than 100 µM; in assay [6] it was greater than 73.2 µM. Moreover, the TGI in assay [7] is greater than 100 µM; in assay [8], greater than 84.7 µM; in [9], greater than 100 µM; in assay [10], greater than 100 µM.
Turning to `O=c1ccc(=O)c2c1c1[nH]c3ccccc3c1c1c(=O)c3ccccc3c(=O)c21`, the TGI in assay [1] is greater than 10 µM; in [2], greater than 10 µM; in assay [3] it was 9.85 µM; in assay [4], greater than 10 µM; in assay [5], greater than 10 µM; in [6] it was greater than 10 µM. In addition, the TGI in assay [7], in assay [8], in assay [9] and in [10] was greater than 10 µM each time.
For `CN(C)CC(=O)N1CCc2c([nH]c3ccccc23)C1c1cccnc1` (stereo not given), the TGI in assay [1], in [2], in assay [3], in [4], in assay [5] and in assay [6] was greater than 100 µM in each case. Further, the TGI in assay [7], in assay [8], in assay [9] and in assay [10] was greater than 100 µM each time. In assay [7], the GI50 is greater than 100 µM.
In the case of `O=C(Nc1c(Cl)cc([N+](=O)[O-])cc1Cl)C(=O)C(C(=O)c1ccncc1)C1OC(=O)c2ccccc21` (stereo not given), the TGI in assay [1], in assay [2], in assay [3], in assay [4], in assay [5] and in assay [6] was greater than 100 µM each time. For the same compound, the TGI in [7], in assay [8], in assay [9] and in assay [10] was greater than 100 µM in each case.
Turning to `CC1(O)CC2C(CC1SCc1ccccc1)C2(C)C` (stereo not given), the TGI in assay [1] is 40.4 µM and 31.8 µM; in assay [2] it was 57.9 µM and 32.5 µM; in [3] it was > 100 µM and 33.8 µM; in [4], 33.6 µM and 25.2 µM; in assay [5], 46.8 µM and 32.9 µM; in assay [6], > 100 µM and 42.2 µM. In addition, the TGI is 35.6 µM and 28.6 µM in assay [7]; > 100 µM and 32.1 µM in [8]; > 100 µM and 35.4 µM in assay [9]; > 100 µM and 34.1 µM in assay [10]. For the same compound, the GI50 was 28.3 µM and 10.2 µM in assay [3]; 37.4 µM and 14.8 µM in [6]; 33.3 µM and 12.3 µM in [8]; 57.1 µM and 19.9 µM in assay [10].
Take `COc1ccc(-c2nn(-c3cccc(Cl)c3)cc2-c2c(C#N)c(=O)n3[nH]c(-c4ccc(C)o4)nc3c2C#N)cc1`: the GI50 in assay [1] is 13.6 µM; in [2], 1550 nM; in assay [3], 4.88 µM; in assay [4], 5.68 µM; in assay [5], 9.21 µM; in assay [6] it was 2.45 µM. The GI50 in assay [7] is 4.11 µM; in [8], 4.09 µM; in assay [9], 5.51 µM; in assay [10], 12.4 µM. For the same compound, the TGI is greater than 50 µM in assay [1]; 10.7 µM in assay [2]; 23.5 µM in assay [3]; 19 µM in assay [4]; greater than 50 µM in assay [5]; greater than 50 µM in assay [6]. The TGI in [7] was greater than 50 µM; in [8] it was greater than 50 µM; in [9], 21.1 µM; in [10], greater than 50 µM.
For `CSc1ccc2c(c1)N(CCCN(C)C)c1ccccc1S2`, the TGI came to 30.9 µM in assay [1]; 24.6 µM in assay [2]; 31.3 µM in assay [3]; 27.2 µM in assay [4]; 41.8 µM in assay [5]; 23.4 µM in assay [6]. Moreover, the TGI came out at 22.5 µM in [7], 17 µM in assay [8], 6.7 µM in [9] and 28.3 µM in [10].
As to `Cc1cc(=O)[nH]c2c1C(=O)c1c(C)cc(=O)n(C)c1C2=O`, the TGI is 0.31 µM in assay [1]; 0.36 µM in assay [2]; 0.374 µM in [3]; 0.151 µM in assay [4]; 0.179 µM in assay [5]; greater than 10 µM in assay [6]. In addition, the TGI in assay [7] is 0.281 µM; in assay [8], greater than 10 µM; in [9], 0.0351 µM; in [10], 0.418 µM.
In the case of `COc1cc(C(=O)Nc2ccc(-c3nc4ccccc4[nH]3)cc2)cc(OC)c1OC`, the GI50 was 11.7 µM in assay [1]; 7070 nM in [2]; 17.8 µM in [3]; 12.4 µM in assay [4]; 16.9 µM in assay [5]; 7.9 µM in [6]. Also, the GI50 in assay [7] was 10.7 µM; in [8], 7.39 µM; in assay [9], 13.7 µM; in assay [10] it was 15.1 µM. Also, the TGI in assay [1] is 26.3 µM; in [2], 25.4 µM; in [3], 56.4 µM; in assay [4] it was 27.9 µM; in [5], 42.8 µM; in assay [6], 39.3 µM. Besides, the TGI in [7] worked out at 30.9 µM; in [8], 27.4 µM; in [9], 28.6 µM; in assay [10] it was 29.3 µM.
